Data published in paper PMC11915801, “Evolutionary trajectory of bacterial resistance to antibiotics and antimicrobial peptides in Escherichia coli” (mSystems, 2025).
Values after ≈ are worked out from the molar mass of the structure shown. Where two headings read alike, the source gives them in different places.

Experiments:
Assay in all cases: microbe, parasite or virus in culture
Type in all cases: cell-based, Escherichia coli
E. coli K-12 MG1655 = details: for MIC of MG1655 under the pressure of the same drug, generation primary: broth microdilution (CLSI), primary MG1655 before passage; for MIC of MG1655 under the pressure of the same drug, generation 10: broth microdilution, line passaged in MH broth with sub-inhibitory drug, 12 h per passage, 37℃; for MIC: Escherichia coli
Method: (§1) The broth microdilution method was used to measure the MIC values of antibiotics and peptides according to the Clinical and Laboratory Standards Institute guidelines. The MIC value is defined as the lowest drug concentration without visible bacteria.
Eight antibiotics and ten AMPs at the sub-inhibitory concentration were prepared. A 300-µL system, including 260 µL of MH broth, 30 µL of prepared drug, and 10 µL of bacterial culture, was used for resistance passages. After 12 h of incubation at 37℃ and 200 rpm, 10 µL of the above bacterial culture was added into the new sterile drug-containing broth. MIC values of bacterial culture were determined. The drug concentration was adjusted according to the MIC value change until the end of the 120 passages.

TMP30 (evolved MG1655) = details: broth microdilution, trimethoprim-evolved strain
From the text: (§2) To ensure the stable resistance evolution and inheritance of MG1655 under different drugs, we randomly selected three monoclonals from the evolved strains. The final antibiotic-evolved strains were designated as AMP120, AZI120, CHL80, CIP120, DOX120, KAN80, NIT70, and TMP30, while the final AMP-evolved strains were named COL120, Ind120, Omi120, Pex120, PGLA120, Pleu120, R8120, SAAP120, LI120, and SLAP120.
as §1

AMP120 (evolved MG1655) = test system: AMP120 (evolved MG1655)
From the text: as §2, §1

KAN80 (evolved MG1655) = test system: KAN80 (evolved MG1655)
From the text: as §2, §1

CHL80 (evolved MG1655) = details: broth microdilution, chloramphenicol-evolved strain
From the text: as §2, §1

NIT70 (evolved MG1655) = details: broth microdilution, nitrofurantoin-evolved strain
From the text: as §2, §1

AZI120 (evolved MG1655) = details: broth microdilution, azithromycin-evolved strain
From the text: as §2, §1

DOX120 (evolved MG1655) = details: broth microdilution, doxycycline-evolved strain
From the text: as §2, §1

CIP120 (evolved MG1655) = details: broth microdilution, ciprofloxacin-evolved strain
From the text: as §2, §1

COL120 (evolved MG1655) = details: broth microdilution, colistin-evolved strain
From the text: as §2, §1

[1] = broth microdilution, ampicillin-evolved strain
[2] = broth microdilution, kanamycin-evolved strain

AC-Dab-Ile-Dab-Ile-Dab-D-Phe-Leu-Dab-D-Val-Leu-Ala-NH2 [SLAP, SLAP-S25, short-linear AMP]
evolution of resistance in MG1655 (in words) (E. coli K-12 MG1655; MG1655, sub-inhibitory drug in MH broth over 60 days): marginal increase in resistance | MIC of MG1655 under the pressure of the same drug, generation 20 (E. coli K-12 MG1655; as E2, generation 20): 8 µg/mL | MIC of MG1655 under the pressure of the same drug, generation 30 (E. coli K-12 MG1655; as E2, generation 30): 8 µg/mL | MIC of MG1655 under the pressure of the same drug, generation 40 (E. coli K-12 MG1655; as E2, generation 40): 8 µg/mL | MIC of MG1655 under the pressure of the same drug, generation 50 (E. coli K-12 MG1655; as E2, generation 50): 16 µg/mL | MIC of MG1655 under the pressure of the same drug, generation 60 (E. coli K-12 MG1655; as E2, generation 60): 16 µg/mL | MIC of MG1655 under the pressure of the same drug, generation 70 (E. coli K-12 MG1655; as E2, generation 70): 16 µg/mL | MIC of MG1655 under the pressure of the same drug, generation 80 (E. coli K-12 MG1655; as E2, generation 80): 32 µg/mL | MIC of MG1655 under the pressure of the same drug, generation 90 (E. coli K-12 MG1655; as E2, generation 90): 32 µg/mL | MIC of MG1655 under the pressure of the same drug, generation 100 (E. coli K-12 MG1655; as E2, generation 100): 32 µg/mL | MIC of MG1655 under the pressure of the same drug, generation 110 (E. coli K-12 MG1655; as E2, generation 110): 64 µg/mL | MIC of MG1655 under the pressure of the same drug, generation 120 (E. coli K-12 MG1655; as E2, generation 120): 64 µg/mL | MIC of MG1655 under the pressure of the same drug, generation primary (E. coli K-12 MG1655): 4 µg/mL | MIC of MG1655 under the pressure of the same drug, generation 10 (E. coli K-12 MG1655): 4 µg/mL | MIC values of evolved MG1655, strain TMP30 (TMP30 (evolved MG1655)): 4 µg/mL | collateral sensitivity of AMP120 (fold change of MIC vs wild-type MG1655) (AMP120 (evolved MG1655); MIC of AMP120 compared with MG1655): exceeding fourfold | MIC values of evolved MG1655, strain AMP120 (AMP120 (evolved MG1655); [1]): 1 µg/mL | MIC values of evolved MG1655, strain KAN80 (KAN80 (evolved MG1655); [2]): 2 µg/mL | MIC values of evolved MG1655, strain CHL80 (CHL80 (evolved MG1655)): 2 µg/mL | MIC values of evolved MG1655, strain NIT70 (NIT70 (evolved MG1655)): 2 µg/mL | MIC values of evolved MG1655, strain AZI120 (AZI120 (evolved MG1655)): 32 µg/mL | MIC values of evolved MG1655, strain DOX120 (DOX120 (evolved MG1655)): 2 µg/mL | MIC values of evolved MG1655, strain CIP120 (CIP120 (evolved MG1655)): 2 µg/mL | MIC values of evolved MG1655, strain COL120 (COL120 (evolved MG1655)): 8 µg/mL

NC[C@H]1O[C@H](O[C@H]2[C@H](O)[C@@H](O[C@H]3O[C@H](CO)[C@@H](O)[C@H](N)[C@H]3O)[C@H](N)C[C@@H]2N)[C@H](O)[C@@H](O)[C@@H]1O [KAN, Kanamycin]
increase in MIC values after experimental evolution (E. coli K-12 MG1655; MG1655, sub-inhibitory drug in MH broth over 60 days, final vs primary MIC): 256 fold | MIC of MG1655 under the pressure of the same drug, generation 20 (E. coli K-12 MG1655; as E2, generation 20): 32 µg/mL | MIC of MG1655 under the pressure of the same drug, generation 30 (E. coli K-12 MG1655; as E2, generation 30): 64 µg/mL | MIC of MG1655 under the pressure of the same drug, generation 40 (E. coli K-12 MG1655; as E2, generation 40): 64 µg/mL | MIC of MG1655 under the pressure of the same drug, generation 50 (E. coli K-12 MG1655; as E2, generation 50): 128 µg/mL | MIC of MG1655 under the pressure of the same drug, generation 60 (E. coli K-12 MG1655; as E2, generation 60): 256 µg/mL | MIC of MG1655 under the pressure of the same drug, generation 70 (E. coli K-12 MG1655; as E2, generation 70): 256 µg/mL | MIC of MG1655 under the pressure of the same drug, generation 80 (E. coli K-12 MG1655; as E2, generation 80): 512 µg/mL | MIC of MG1655 under the pressure of the same drug, generation primary (E. coli K-12 MG1655): 2 µg/mL | MIC of MG1655 under the pressure of the same drug, generation 10 (E. coli K-12 MG1655): 16 µg/mL | MIC values of evolved MG1655, strain TMP30 (TMP30 (evolved MG1655)): 4 µg/mL | MIC values of evolved MG1655, strain AMP120 (AMP120 (evolved MG1655); [1]): 1 µg/mL | MIC values of evolved MG1655, strain KAN80 (KAN80 (evolved MG1655); [2]): 512 µg/mL | MIC values of evolved MG1655, strain CHL80 (CHL80 (evolved MG1655)): 2 µg/mL | MIC values of evolved MG1655, strain NIT70 (NIT70 (evolved MG1655)): 4 µg/mL | MIC values of evolved MG1655, strain AZI120 (AZI120 (evolved MG1655)): 4 µg/mL | MIC values of evolved MG1655, strain DOX120 (DOX120 (evolved MG1655)): 2 µg/mL | MIC values of evolved MG1655, strain CIP120 (CIP120 (evolved MG1655)): 4 µg/mL | MIC values of evolved MG1655, strain COL120 (COL120 (evolved MG1655)): 4 µg/mL

O=C(N[C@H](CO)[C@H](O)c1ccc([N+](=O)[O-])cc1)C(Cl)Cl [CHL, Chloramphenicol]
MIC (E. coli K-12 MG1655; MG1655, 12 h, read-out: MIC of MG1655 under the pressure of the same drug, generation 10): 8 µg/mL | MIC (E. coli K-12 MG1655; MG1655, read-out: MIC of MG1655 under the pressure of the same drug, generation primary): 8 µg/mL | MIC (E. coli K-12 MG1655; MG1655, as E2, generation 20, read-out: MIC of MG1655 under the pressure of the same drug, generation 20): 16 µg/mL | MIC (E. coli K-12 MG1655; MG1655, as E2, generation 30, read-out: MIC of MG1655 under the pressure of the same drug, generation 30): 32 µg/mL | MIC (E. coli K-12 MG1655; MG1655, as E2, generation 40, read-out: MIC of MG1655 under the pressure of the same drug, generation 40): 64 µg/mL | MIC (E. coli K-12 MG1655; MG1655, as E2, generation 50, read-out: MIC of MG1655 under the pressure of the same drug, generation 50): 128 µg/mL | MIC (E. coli K-12 MG1655; MG1655, as E2, generation 60, read-out: MIC of MG1655 under the pressure of the same drug, generation 60): 256 µg/mL | MIC (E. coli K-12 MG1655; MG1655, as E2, generation 70, read-out: MIC of MG1655 under the pressure of the same drug, generation 70): 256 µg/mL | MIC (E. coli K-12 MG1655; MG1655, as E2, generation 80, read-out: MIC of MG1655 under the pressure of the same drug, generation 80): 512 µg/mL | MIC (TMP30 (evolved MG1655); Escherichia coli, MG1655): 8 µg/mL (≈ 24.8 µM) | MIC (AMP120 (evolved MG1655); Escherichia coli, MG1655, broth microdilution, ampicillin-evolved strain): 16 µg/mL (≈ 49.5 µM) | MIC (KAN80 (evolved MG1655); Escherichia coli, MG1655, broth microdilution, kanamycin-evolved strain): 2 µg/mL (≈ 6.19 µM) | collateral sensitivity of KAN80 (fold change of MIC vs wild-type MG1655) (KAN80 (evolved MG1655); MIC of KAN80 compared with MG1655): exceeding fourfold | MIC (CHL80 (evolved MG1655); Escherichia coli, MG1655): 512 µg/mL (≈ 1580 µM) | MIC (NIT70 (evolved MG1655); Escherichia coli, MG1655): 8 µg/mL (≈ 24.8 µM) | MIC (AZI120 (evolved MG1655); Escherichia coli, MG1655): 8 µg/mL (≈ 24.8 µM) | MIC (DOX120 (evolved MG1655); Escherichia coli, MG1655): 64 µg/mL (≈ 198 µM) | MIC (CIP120 (evolved MG1655); Escherichia coli): 32 µg/mL (≈ 99 µM) | MIC (COL120 (evolved MG1655); Escherichia coli, MG1655): 8 µg/mL (≈ 24.8 µM)
